As a reminder, the IC50 is the concentration at which inhibition is half-maximal. For orientation: inhibition means the percentage by which the read-out fell short of the control.

For experiment [1], the system named is PBMCs. The experiment in a line: IL-2 release in CD3/CD28 stimulated PBMC cells (assay c). Format: cell-based. To be noted: Homo sapiens, read-out: IC50 Values for Inhibition of Cytokine Release, PBMCs IL-2. The gist of the method: (§1)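 Compound added to human PBMCs on anti-CD3/anti-CD28-coated wells (0.3 and 3 μg/mL respectively); 3-day culture. Sandwich ELISA of supernatant IL-2 or IFN gamma gives the read-out, with IC50 derived from the dose-response curve.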

Experiment [2] deals with PBMCs. Put plainly: LPS-induced IL-8 release in PBMC cells (assay b). To be noted: Homo sapiens, PBMC; LPS-stimulated PBMCs; read-out: IC50 Values for Inhibition of Cytokine Release, PBMCs IL-8. Format: cell-based, human. In short, it runs like this:
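Human PBMCs from healthy donors, isolated by density gradient, were pretreated with compound for 2 h and then stimulated with 1 ng/mL LPS (E. coli 0111:B4) for 24 h at 37° C, 5% CO2. Supernatant IL-8 and TNFα were measured by sandwich ELISA, and IC50 was taken from the dose-response curve.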

The next experiment concerns HT29 cells. The experiment in a line: IL-1β-induced IL-8 release in HT29 cells (assay d). Format: cell-based. To be noted: Homo sapiens, HT-29; IL-1β-stimulated HT29 cells; read-out: IC50 Values for Inhibition of Cytokine Release, HT29 cells IL-8. The protocol: HT29 cells, a human colon adenocarcinoma cell line, are plated in a 96 well plate (24 hrs) and pre-treated with compounds at the desired concentration for 2 hours before addition of 5 ng/mL of IL-1β (Abcam) for 24 hours. Supernatants are harvested for IL-8 quantification by Sandwich ELISA (Duo-set, R&D System). The IC50 is determined from the dose response curve.

The next experiment concerns the target Syk (Homo sapiens (Human), UniProt P43405). The experiment in a line: Syk enzyme inhibition (FRET, Z-LYTE). It counts as biochemical. The gist of the method:
(§2)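 c-Src (3000 ng/mL) or Syk (2000 ng/mL) stock was preincubated with compound (4–0.004 μg/mL stocks) for 2 hr at RT. FRET peptide (8 μM stock) and ATP (800 μM c-Src, 60 μM Syk, as added) were then added for 1 hr, followed by 1 hr protease development. The coumarin/fluorescein emission ratio gave % inhibition and IC50.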

The next experiment has as its target c-Src (Homo sapiens (Human), UniProt P12931). Put plainly: c-Src enzyme inhibition (FRET, Z-LYTE). Format: biochemical. In short, it runs like this: as §2
Experiment [3] has as its system PBMCs. Put plainly: Cell mitosis assay in PBMCs (assay g). It counts as cell-based. To be noted: Homo sapiens, PBMC, test compound 5 μg/mL. In short, it runs like this:
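Human PBMCs from healthy donors, stimulated with 2% PHA for 48 hr, then exposed to test compounds for 20 hr, with demecolcine (0.1 μg/mL) added 2 hr before harvest. Cells fixed/permeabilised, stained for phospho-histone 3 and propidium iodide, and read by flow cytometry gated on lymphocytes. % mitosis inhibition vs 0.5% DMSO vehicle.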

The test system of experiment [4] is PBMCs. Put plainly: IFN gamma release in CD3/CD28 stimulated PBMC cells (assay c). Format: cell-based. Conditions: Homo sapiens, read-out: IC50 Values for Inhibition of Cytokine Release, PBMCs IFNγ. The gist of the method: as §1
For another experiment, the target named is GSK 3α (Homo sapiens (Human), UniProt P49840). Put plainly: GSK 3α enzyme inhibition (FRET, Z-LYTE, Method 2). Format: biochemical. To be noted: read-out: IC50 Values for Enzyme Inhibition, GSK3α. The gist of the method:
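Phosphorylation of a dual-labelled synthetic peptide by human GSK3α is read as a coumarin/fluorescein ratio after protease development. Compound stocks run 4 to 0.004 μg/mL, and ATP stock is 40 μM.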

Experiment [5] concerns the target p38 MAPKα isoform (MAPK14) (Homo sapiens (Human), UniProt Q16539). Put plainly: p38 MAPKα enzyme inhibition (FRET, Z-LYTE, Method 2). Format: biochemical. In short, it runs like this:
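Z-LYTE FRET: p38 MAPKα (80 ng/mL for Method 1, 200 ng/mL for Method 2, pre-dilution) preincubated 2 hr RT with compound (4–0.004 μg/mL solutions), activity read via MAPKAP-K2 phosphorylation after 1 hr RT and 1 hr protease development. Coumarin/fluorescein ratio gives phosphorylation; % inhibition versus uninhibited control, IC50 from concentration-response curve.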

Some results are limits rather than exact numbers.

Chain of c-Src (P12931 whole entry, looked up): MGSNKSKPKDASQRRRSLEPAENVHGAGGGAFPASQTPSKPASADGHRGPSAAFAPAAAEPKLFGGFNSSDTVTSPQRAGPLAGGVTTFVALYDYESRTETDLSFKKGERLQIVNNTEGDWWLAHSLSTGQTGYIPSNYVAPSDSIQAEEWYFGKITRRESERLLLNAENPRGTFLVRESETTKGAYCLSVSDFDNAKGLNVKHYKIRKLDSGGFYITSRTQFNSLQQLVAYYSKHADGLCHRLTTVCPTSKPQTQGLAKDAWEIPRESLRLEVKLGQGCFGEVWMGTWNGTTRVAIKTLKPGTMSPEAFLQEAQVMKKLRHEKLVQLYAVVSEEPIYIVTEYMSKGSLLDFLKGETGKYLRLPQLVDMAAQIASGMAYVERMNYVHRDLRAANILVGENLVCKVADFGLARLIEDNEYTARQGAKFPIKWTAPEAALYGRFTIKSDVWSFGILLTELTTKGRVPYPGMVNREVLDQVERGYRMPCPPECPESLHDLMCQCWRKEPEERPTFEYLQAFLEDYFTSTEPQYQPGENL
Chain of p38 MAPKα isoform (MAPK14) (Q16539 whole entry, canonical isoform): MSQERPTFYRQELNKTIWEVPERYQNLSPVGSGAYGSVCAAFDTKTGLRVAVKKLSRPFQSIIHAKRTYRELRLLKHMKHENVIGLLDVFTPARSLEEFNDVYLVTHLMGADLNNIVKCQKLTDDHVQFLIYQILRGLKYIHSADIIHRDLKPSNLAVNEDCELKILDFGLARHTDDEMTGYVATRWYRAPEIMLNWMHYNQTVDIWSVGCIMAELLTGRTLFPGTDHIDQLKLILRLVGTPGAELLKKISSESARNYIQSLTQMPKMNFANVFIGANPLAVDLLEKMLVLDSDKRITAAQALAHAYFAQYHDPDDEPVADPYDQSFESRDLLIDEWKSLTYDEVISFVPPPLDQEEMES
Chain of GSK 3α (P49840 whole entry): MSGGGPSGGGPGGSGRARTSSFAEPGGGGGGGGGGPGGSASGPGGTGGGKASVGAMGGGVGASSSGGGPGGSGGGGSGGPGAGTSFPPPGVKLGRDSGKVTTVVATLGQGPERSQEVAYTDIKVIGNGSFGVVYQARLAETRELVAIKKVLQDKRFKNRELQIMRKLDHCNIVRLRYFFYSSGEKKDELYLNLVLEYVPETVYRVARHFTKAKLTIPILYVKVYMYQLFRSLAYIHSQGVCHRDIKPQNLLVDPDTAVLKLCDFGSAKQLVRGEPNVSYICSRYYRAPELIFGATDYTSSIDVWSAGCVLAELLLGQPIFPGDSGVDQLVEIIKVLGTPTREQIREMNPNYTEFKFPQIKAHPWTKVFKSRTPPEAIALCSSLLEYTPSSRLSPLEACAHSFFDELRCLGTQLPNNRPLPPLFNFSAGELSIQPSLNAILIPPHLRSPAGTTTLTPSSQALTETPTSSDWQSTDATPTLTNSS

Regarding `COc1cc(Nc2cc(Oc3ccc(NC(=O)Nc4cc(C(C)(C)C)cc([S+](C)[O-])c4OC)c4ccccc34)ccn2)cc(C(=O)NCCN2CCOCC2)c1` (centres unmarked) [Example 46, 3-((4-((4-(3-(5-(tert-Butyl)-2-methoxy-3-(methylsulfinyl)phenyl)ureido)naphthalen-1-yl)oxy)pyridin-2-yl)amino)-5-methoxy-N-(2-morpholinoethyl)benzamide], the IC50 in the experiment on PBMCs [1] turned out to be 47.3 nM; in the experiment on PBMCs [2], 0.8 nM; in the experiment with HT29 cells, 2.8 nM; on Syk, 996 nM; on c-Src, 25 nM; with PBMCs [4], 2.8 nM. In addition, the IC50 at GSK 3α was determined as 2060 nM; in [5], 25 nM. This molecule also returned an inhibition at 5 µg/mL in the experiment with PBMCs [3] of 45.8%.

For `COc1cc(Nc2cc(Oc3ccc(NC(=O)Nc4cc(C(C)(C)C)cc(CC(N)=O)c4OC)c4ccccc34)ccn2)cc(C(=O)NCCN2CCOCC2)c1` [Example 45, 3-((4-((4-(3-(3-(2-Amino-2-oxoethyl)-5-(tert-butyl)-2-methoxyphenyl)ureido)naphthalen-1-yl)oxy)pyridin-2-yl)amino)-5-methoxy-N-(2-morpholinoethyl)benzamide], the IC50 in the experiment with PBMCs [1] was 36.4 nM; in the experiment on PBMCs [2], 1.2 nM; with HT29 cells, 8 nM; against Syk, greater than 706 nM; against c-Src it was 12 nM; in the experiment with PBMCs [4] it was 5.2 nM. Moreover, the IC50 turned out to be 1600 nM on GSK 3α and 21 nM in experiment [5]. Further, the inhibition at 5 µg/mL with PBMCs [3] turned out to be 49.6%.

On to `COc1cc(Nc2cc(Oc3ccc(NC(=O)Nc4cc(C(C)(C)C)cc(CC(N)=O)c4OC)c4ccccc34)ccn2)cc(C(N)=O)c1` [Example 47, 3-((4-((4-(3-(3-(2-Amino-2-oxoethyl)-5-(tert-butyl)-2-methoxyphenyl)ureido)naphthalen-1-yl)oxy)pyridin-2-yl)amino)-5-methoxybenzamide], for which the IC50 in the experiment on PBMCs [1] is 57.1 nM; in the experiment with PBMCs [2] it was 2.2 nM; in the experiment with HT29 cells, 26.1 nM; at Syk, greater than 1510 nM; at c-Src, 34 nM; in the experiment with PBMCs [4], 3 nM. The values for the IC50 (on GSK 3α; in [5]) were 1460 nM and 36 nM, respectively. The same molecule returned an inhibition at 5 µg/mL with PBMCs [3] of 30.1%.

As to `COc1c(CC(N)=O)cc(C(C)(C)C)cc1NC(=O)Nc1ccc(Oc2ccnc(Nc3cccc(OS(C)(=O)=O)c3)c2)c2ccccc12` [38(r), 3-((4-((4-(3-(3-(2-Amino-2-oxoethyl)-5-(tert-butyl)-2-methoxyphenyl)ureido)naphthalen-1-yl)oxy)pyridin-2-yl)amino)phenyl methanesulfonate], the IC50 in the experiment with PBMCs [1] is 153 nM; with PBMCs [2], 1.9 nM; in the experiment with HT29 cells it was 25.9 nM; on Syk, greater than 1460 nM; against c-Src, 94 nM; with PBMCs [4], 9.8 nM. The IC50 on GSK 3α was found to be 2210 nM; in experiment [5] it was 151 nM. Further, in the experiment with PBMCs [3], the inhibition at 5 µg/mL was 56.1%.

With `COc1cc(Nc2cc(Oc3ccc(NC(=O)Nc4cc(C(C)(C)C)cc(C[S+](C)[O-])c4OC)c4ccccc34)ccn2)cc(C(=O)NCCN2CCOCC2)c1` (centres unmarked) [38(u), 3-((4-((4-(3-(5-(tert-Butyl)-2-methoxy-3-((methylsulfinyl)methyl)phenyl)ureido)naphthalen-1-yl)oxy)pyridin-2-yl)amino)-5-methoxy-N-(2-morpholinoethyl)benzamide], the IC50 was determined as 171 nM with PBMCs [1]; 1 nM in the experiment with PBMCs [2]; 2.6 nM in the experiment on HT29 cells; 13 nM against c-Src; 2.9 nM with PBMCs [4]; 1070 nM on GSK 3α. The same molecule had an IC50 in [5] of 15 nM. In addition, the inhibition at 5 µg/mL in the experiment on PBMCs [3] came out at 72.2%.

The values above are taken from patent US9890185B2, “Urea derivatives useful as kinase inhibitors” (Respivert Limited, priority 2013, dated 2018).
